Experimental data: patent US20240408043A1, “COMPOSITIONS AND METHODS FOR USE IN INCREASING MOTIVATIONAL PERFORMANCE” (SOCIETE DES PRODUITS NESTLE S.A., priority 2021, published 2024)
“Also recorded” adds a separate entry of the source.

How the values were obtained:
[1] = test system: GSH in the nucleus accumbens; experiment: GSH level in the nucleus accumbens after NAC in the drinking water; type: in vivo, rat; conditions: adult male rats, NAC 500 mg/L in the drinking water for 2 weeks, FIG. 1B
Adult male Wistar rats = experiment: Progressive ratio test of motivated behaviour (operant conditioning, nose poke for saccharine pellets); type: in vivo, rat; conditions: NAC 500 mg/L in the drinking water for 2 weeks, two-hour session
Description: Adult male outbred rats were trained for nose poke for saccharine food pellets for one week on an FR1 training schedule as described in the methods below. […] Following 2 weeks of treatment, rats were given an additional 2 training sessions, followed 24 h later by a progressive ratio session designed to test their motivated behaviour. During this progressive ratio session, rats have to increasingly work harder to earn the saccharine pellet, as described in the methods below. […] The breakpoint is defined as the last step in the session where the animals received a reward and is a direct correlate of their willingness to exert an effort. […] Animals: Adult male Wistar rats (Charles Rivers, Saint-German-Nuelle, France) weighing 250-275 gr at the beginning of the experiment were used for all experiments. Rats were individually housed in cages in housing colonies on a 12:12 h reversed light:dark cycle with lights on at 20:00, and lights-off at 8:00. Food and water were available adlibitum. Following a week of acclimatization to the animal facilities, rats were handled for 2 min per day for three days prior to the start of the experiments, in order to habituate to the experimenters. Operant conditioning: Ten days after introduction to the reversed day-night cycle, rats started training in a fixed ratio 1 reinforcement schedule (FR1). Operant chambers (Coulbourn Instruments, Holliston, MA, US), placed in sound attenuating cubicles, were equipped with a grid, underneath which a tray with standard bedding material was placed for collection of feces and urine after each training session. Each chamber had one food tray and two ports placed on either side of the tray. A cue light was placed in each port and the food tray, whereas a house light was placed above the food tray. […] Correct nosepokes (i.e. nosepokes in the active port and outside the timeout period, thus resulting in food delivery) were calculated to evaluate behavioural performance, as well as the number of acquired rewards and the last completed ratio (breakpoint).

Compound: CC(=O)N[C@@H](CS)C(=O)O [NAC, N-acetyl cysteine]
- GSH in the nucleus accumbens compared to vehicle treated rats [1]: enhance GSH levels; also recorded: enhanced GSH
- nose pokes for the reward (correct nosepokes) in progressive ratio session, compared to vehicle (Adult male Wistar rats; FIG. 1C): significantly more nose pokes
- number of rewards earned in progressive ratio session, compared to vehicle (Adult male Wistar rats; FIG. 1D): greater number of rewards; also recorded: more overall rewards
- breakpoint (last completed ratio) in progressive ratio session, compared to vehicle (Adult male Wistar rats; FIG. 1E): significantly higher breakpoint level
